From article PMC12622528, “Discovery of a Baloxavir‐Inspired Endonuclease Inhibitor That Prevents Herpes Simplex Virus 1 Replication in Cell Culture and In Vivo” (Advanced Science, 2025)

What was measured:
[1] = Pharmacokinetics studies in rats; format: in vivo; conditions: male, Sprague-Dawley, plasma, rat
Description: Six male Sprague‐Dawley rats (180–200 g) were randomly divided into two groups to receive […] of LN‐7 at 2 mg kg^−1 (iv administration) or 10 mg kg^−1 (po administration). LN‐7 was dissolved in DMSO, and then diluted at a concentration of 1 mg mL^−1 in 3% DMSO, 10% solutol HS‐15, and 87% double‐distilled water for dosing. Rats were purchased from Beijing Vital River Laboratory Animal Technology Co., Ltd. (Qualification No. SCXK(SH) 2021‐0011). Animals were subjected to 12 h alternating light and dark cycles, ad libitum access to drinking water and food, and fasting for 12 h prior to the initiation of treatments. For the oral dose at 10 mg kg^−1, blood samples were collected at 0.083, 0.25, 0.5, 1, 2, 4, 6, 8, and 24 h postadministration. For the intravenous dose (at 2 mg kg^−1), blood samples were collected at 0.083, 0.25, 0.5, 1, 2, 4, 6, 8, and 24 h postadministration. Twenty µL of blood were mixed with a 200 µL solution of methanol:acetonitrile (1:1), vortexed for 5 min, and centrifuged (4000 rpm, 4 °C, 10 min) to obtain plasma within 30 min of sampling. The supernatant was analyzed by liquid chromatography–tandem mass spectrometry. Chromatographic separation was performed using an ACQUITY UPLC HSS T3 column (2.1 × 50 mm, 1.8 µm). […] Gradient elution was carried out at a flow rate of 0.8 mL min^−1. […] Mass spectrometric detection was performed with an electrospray ionization source operating in positive ion mode. Quantification was achieved using multiple reaction monitoring with the following transitions: m/z 403.15.
Pharmacokinetic parameters such as AUC, T 1/2, and C max were calculated with the WinNonlin software.

[2] = test system: BALB/c mice; conditions: oral, five consecutive days, LN‐7 25, 50, 75 mg kg−1, acyclovir 50 mg kg−1, 12 days
Description: BALB/c mice were purchased from Charles River Laboratories Spain and maintained at the Animal Facility of the CBM (Madrid, Spain). The toxicity of the test compound LN‐7 was investigated in BALB/c mice dosed as a solution at 25, 50, and 75 mg kg^−1. The compound was formulated in 3% DMSO + 10% solutol HS‐15 + 87% double‐distilled water (20 mg mL^−1). Animals had free access to food and water throughout each study. […] Compounds were orally administered for five consecutive days. Animals were monitored daily for clinical signs (piloerection, lethargy, eye closure), body weight loss, and survival. Oral administration and symptom monitoring was performed by researchers that were aware of the treatment condition (group allocation) for each animal. […] Animals with score 4 were defined as the humane endpoint on which the animal must be euthanized. On day 12, mice were sacrificed and whole blood was obtained by cardiac puncture. Several parameters were analyzed to monitor renal, hepatic, and immunological basic profiles. Body weight was also monitored to exclude weight loss or lack of weight gain that would be indicative of toxicity.

[3] = test system: HSV‐1; experiment: HSV‐1 infection model in BALB/c mice; format: in vivo; conditions: for clinical symptoms of the infection / morbidity: oral LN‐7 75 mg kg−1 or acyclovir 50 mg kg−1; for survival: 8 days postinfection
[4] = Cell viability (MTT) in Vero cells; conditions: African green monkey
[5] = test system: ACV‐resistant HSV‐1 strain F‐TKGF; experiment: Antiviral assay, ACV‐resistant HSV‐1 strain F‐TKGF in Vero cells; conditions: Human alphaherpesvirus 1, Vero, read-out: EC50 against ACV‐resistant strain F‐TKGF
[6] = test system: recombinant HSV‐2 GFP strain; conditions: Human alphaherpesvirus 2, Vero, read-out: EC50 against recombinant HSV‐2 GFP strain
[7] = test system: HSV‐2 strains G and Lovelace; experiment: Antiviral assay, HSV‐2 strains G and Lovelace in Vero cells (viral titer, TCID50); conditions: 10 µM, 24 h post‐infection
[8] = target: HSV‐1 pUL15C (Human herpesvirus 1, UniProt P04295); experiment: HSV‐1 pUL15C nuclease inhibition enzymatic assay (32P‐labeled 33‐bp dsDNA substrate); format: biochemical; conditions: for inhibition at 50 µM: read-out: percentage inhibition of pUL15C nuclease activity at the highest concentration tested; for IC50: concentration required to inhibit by 50% the pUL15C nuclease activity, 37 °C, 1 mM MnCl2, 15 min
[9] = treatment after infection, days 0-3 p.i., LN‐7 75 mg kg−1, acyclovir 50 mg kg−1 or both

HSV‐1 pUL15C, sequence (P04295 471-735): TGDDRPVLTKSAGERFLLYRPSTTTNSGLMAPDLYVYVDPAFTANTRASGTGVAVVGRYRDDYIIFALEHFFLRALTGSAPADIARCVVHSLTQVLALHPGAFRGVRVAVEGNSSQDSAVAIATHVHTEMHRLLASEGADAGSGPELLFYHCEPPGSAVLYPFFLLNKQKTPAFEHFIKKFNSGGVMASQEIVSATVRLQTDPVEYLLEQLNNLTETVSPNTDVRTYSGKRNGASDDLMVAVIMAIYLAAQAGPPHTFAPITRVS

With `O=C1c2c(O)c(=O)ccn2N(Cc2ccc(-c3ccccc3)cc2)[C@@H]2COCCN12` [Compound 17, (R)-12-([1,1'-biphenyl] -4-ylmethyl)-7-hydroxy-3,4,12,12a-tet rahydro-1H-[1,4] oxazino[3,4-c] pyrido[2,1-f] [1,2,4] triazine-6,8-dione] the AUC(0-inf) ([1]; IV 2 mg/Kg) was 1230 ± 182 ng·h/mL, the Cmax ([1]; IV 2 mg/Kg) was 782 ± 63.2 ng/mL and the Tmax ([1]; IV 2 mg/Kg) was 0.0833 h. It also gave a clearance ([1]; IV 2 mg/Kg) of 27.4 mL/min/kg, a half-life ([1]; IV 2 mg/Kg) of 6.24 ± 1.24 h and a Vd ([1]; IV 2 mg/Kg, read-out: Vz) of 15.1 ± 4.05 L/kg. The AUC(0-inf) ([1]; PO 10 mg/Kg) was 2980 ± 763 ng·h/mL, the Cmax ([1]; PO 10 mg/Kg) was 573 ± 152 ng/mL and the Tmax ([1]; PO 10 mg/Kg) was 2 h. For the same compound, the half-life ([1]; PO 10 mg/Kg) was 5.54 ± 0.676 h, the “toxic symptoms or mortality” value [2] was “did not show any toxic symptoms or mortality” and the “HSV‐1 titers in lung, brain, olfactory bulb and spleen tissues” value ([3]; prophylactic setting, oral LN‐7 75 mg kg−1, days −1 to 3 p.i., day 8 p.i.) was “decreased around one to two orders of magnitude”. For the same compound, the “clinical symptoms of the infection / morbidity” value ([3]; prophylactic setting) was “morbidity was higher for the LN‐7‐treated animals”, the clinical symptoms [3, 9] was “clinical symptoms were alleviated” and the piloerection [3, 9] was “piloerection was observed”. The survival [3, 9] was “survived until the end of the experiment”, the “viral titers in tissues (lungs, brain, olfactory bulb, kidneys, spleen)” value ([3]; treatment after infection, days 0-3 p.i., LN‐7 75 mg kg−1, acyclovir 50 mg kg−1 or both, day 8 p.i.) was “significant reductions in the viral titers in all analyzed tissues of treated mice, except for kidney tissue” and the CC50 at 24 h ([4]; Vero cells) was 38.8 µM. The EC50 [5] was 3.2 ± 0.3 µM, the EC50 [6] was 3.6 ± 1.8 µM and the “reduction in the viral titer” value [7] was “reduction of two orders of magnitude”.

With `O=C1c2c(O)c(=O)ccn2N(Cc2ccc(C(F)(F)F)cc2)[C@@H]2COCCN12` [Compound 7] the CC50 at 24 h ([4]; Vero cells) was over 100 µM.

Work on `O=C1c2c(O)c(=O)ccn2N(Cc2ccc(-c3ccc(F)cc3)cc2)[C@@H]2COCCN12` [Compound 30] yielded a CC50 at 24 h ([4]; Vero cells) of over 66.5 µM.

Work on `O=C1c2c(O)c(=O)ccn2N(Cc2ccc(-c3ccc(Cl)cc3)cc2)[C@@H]2COCCN12` [Compound 31] yielded an inhibition at 50 µM [8] of 48.1% and an IC50 [8] of over 30 µM.

Compound `O=C1c2c(O)c(=O)ccn2N(Cc2ccc(Cl)c(F)c2)[C@@H]2COCCN12` [Compound 10] has a CC50 at 24 h ([4]; Vero cells) of over 100 µM.

With `COc1ccc(-c2ccc(CN3[C@@H]4COCCN4C(=O)c4c(O)c(=O)ccn43)cc2)cc1` [Compound 33] the IC50 [8] was 19.4 ± 1.3 µM.

With `O=C1c2c(O)c(=O)ccn2N(Cc2ccc(-c3ccc4[nH]ccc4c3)cc2)[C@@H]2COCCN12` [Compound 19] the inhibition at 50 µM [8] was 51.5% and the IC50 [8] was over 30 µM.

`O=C(Nc1ccccc1)c1ccc(-c2ccc(CN3[C@@H]4COCCN4C(=O)c4c(O)c(=O)ccn43)cc2)cc1` [Compound 40] showed an inhibition at 50 µM [8] of 42.7% and an IC50 [8] of over 30 µM.

Compound `CC(C)c1ccc(O)c(=O)c(O)c1` [β‐thujaplicinol, reference compound] has a CC50 at 24 h ([4]; Vero cells) of over 100 µM.

Compound `COC(=O)OCOc1c2n(ccc1=O)N([C@@H]1c3ccccc3SCc3c1ccc(F)c3F)[C@@H]1COCCN1C2=O` [Baloxavir marboxil, reference compound] has a CC50 at 24 h [4] of over 100 µM.

`O=C1c2c(O)c(=O)ccn2N(Cc2ccc3ccc4cccc5ccc2c3c45)[C@@H]2COCCN12` [Compound 12] gave an inhibition at 50 µM [8] of 65.4% and an IC50 [8] of over 30 µM.

For `O=C1c2c(O)c(=O)ccn2N(Cc2ccc(-c3ccc([N+](=O)[O-])cc3)cc2)[C@@H]2COCCN12` [Compound 32], the inhibition at 50 µM [8] was 74.3% and the IC50 [8] was over 30 µM.

`O=C1c2c(O)c(=O)ccn2N(Cc2ccc(-c3ccco3)cc2)[C@@H]2COCCN12` [Compound 16, (R)-12-(4-(furan-2-yl)benzyl)-7-hydroxy-3,4,12,12a-tetrahydro-1H-[1,4] oxazi no[3,4-c] pyrido[2,1-f] [1,2,4] triazine-6,8-dione] showed a CC50 at 24 h ([4]; Vero cells) of over 100 µM.

In the case of `O=C1c2c(O)c(=O)ccn2N(Cc2ccc(-c3ccc(OC(F)(F)F)cc3)cc2)[C@@H]2COCCN12` [Compound 34], the CC50 at 24 h ([4]; Vero cells) is reported as over 52.8 µM.

In the case of `Nc1nc2c(ncn2COCCO)c(=O)[nH]1` [Acyclovir (ACV), Acyclovir, reference compound], the “toxic symptoms or mortality” value [2] is reported as “did not show any toxic symptoms or mortality”, the “clinical symptoms of the infection / morbidity” value ([3]; prophylactic setting) is reported as “Clinical symptoms of the infection were observed” and the clinical symptoms [3, 9] is reported as “clinical symptoms were alleviated”. For the same compound, the piloerection [3, 9] was “piloerection was observed”, the survival [3, 9] was “survived until the end of the experiment” and the CC50 at 24 h ([4]; Vero cells) was over 100 µM. For the same compound, the EC50 [5] was over 20 µM.

With `O=C1c2c(O)c(=O)ccn2N([C@@H]2c3ccccc3SCc3c2ccc(F)c3F)[C@@H]2COCCN12` [Baloxavir acid, reference compound] the CC50 at 24 h [4] was over 100 µM.
